“And” between values parts separate entries of the source, which are not always exact repeats. Equal entries are not always repeated. Where two headings read alike, the source gives them in different places.
Columns and labels:
[1] = tested on: HUT-78 cells; assay: Cellular uptake and extrusion of photosensitizer (flow cytometry MFI); assay type: cell-based; settings: ±SE; for Uptake MFI: 2.5 × 10^−7 M photosensitizer, 20 minutes exposure; for % Extrusion: percent change in MFI after 18 hour extrusion period, 2.5 × 10^−7 M
Experimental: Cellular Uptake and Extrusion of Chalcogenorhodamine Photosensitizers. […] Cellular uptake of the chalcogenorhodamine photosensitizers was measured after a 20 minute exposure to 2.5×10^−7 M photosensitizer in malignant T cells (HUT-78 cells, Table 2). Transmembrane movement of the photosensitizers in the secretory direction (basolateral to apical) was measured after an 18-h extrusion period. As described above, the Se-containing molecules fluoresced at a lower intensity relative to the S-containing molecules. […] Overall, the PF6^− salts were more slowly extruded from cells relative to the chloride salts of the amide, with a greater difference in the extrusion kinetics noted between the thiorhodamine PF6 salts compared to the selenorhodamine chloride salts.

[2] = molecular target: P-gp (Homo sapiens, UniProt P08183); settings: cited from earlier work
[3] = Fluorescence quantum yield in MeOH; assay type: physicochemical; settings: for ΦF, MeOH: quantum yield for fluorescence in MeOH; for ΦF of sulfur analogue relative to selenium analogue: MeOH
[4] = Quantum yield for generation of singlet oxygen, time-resolved 1O2 phosphorescence; assay type: physicochemical; settings: air-saturated MeOH, TMR-Se as reference
[5] = tested on: resting T cells; assay: Dark toxicity: bioenergetics (O2 consumption rate) of resting T cells; settings: 5.0×10^−7 M
[6] = tested on: immunomagnetically-selected CD3+ cells; assay: Phototoxicity: cell survival by FACS (Annexin 5/7AAD) 18 hours after PD; assay type: cell-based; settings: 5.0×10^−8 M, 5 J/cm^2 light, FACS 18 hours after PD
Description: Selective phototoxicity of Chalcogenorhodamine Photosensitizers. Based on the rapid extrusion kinetics and low potential for toxicity in resting cells, we selected four amide-containing half-julolidine analogues for further analysis (2-S—Cl, 2-Se—Cl, 4-S—Cl, and 4-Se—Cl). These photosensitizers are associated with high singlet oxygen quantum yields (Table I). As a result, very low concentrations of these agents are required for phototherapy. For all PD experiments, immunomagnetically-selected CD3^+ cells were suspended in a photosensitizer-rich media of 5.0×10^−8 M for 20 minutes followed by 30 minutes in a photosensitizer-free media. Cells were then exposed to 5 J/cm^2 of light followed by real-time measurement of OCR and ECAR. […] We next evaluated the effects of PD on cell survival. For these experiments, FACS analysis was performed 18 hours after PD. Cell survival was identified by failure to bind Annexin 5 and 7AAD, and percent survival was calculated as the difference in the absolute number of cells between PD and control (non-PD samples) samples.

[7] = n-octanol / PBS pH 7.4, shake flask

P-gp, sequence (P08183 whole entry): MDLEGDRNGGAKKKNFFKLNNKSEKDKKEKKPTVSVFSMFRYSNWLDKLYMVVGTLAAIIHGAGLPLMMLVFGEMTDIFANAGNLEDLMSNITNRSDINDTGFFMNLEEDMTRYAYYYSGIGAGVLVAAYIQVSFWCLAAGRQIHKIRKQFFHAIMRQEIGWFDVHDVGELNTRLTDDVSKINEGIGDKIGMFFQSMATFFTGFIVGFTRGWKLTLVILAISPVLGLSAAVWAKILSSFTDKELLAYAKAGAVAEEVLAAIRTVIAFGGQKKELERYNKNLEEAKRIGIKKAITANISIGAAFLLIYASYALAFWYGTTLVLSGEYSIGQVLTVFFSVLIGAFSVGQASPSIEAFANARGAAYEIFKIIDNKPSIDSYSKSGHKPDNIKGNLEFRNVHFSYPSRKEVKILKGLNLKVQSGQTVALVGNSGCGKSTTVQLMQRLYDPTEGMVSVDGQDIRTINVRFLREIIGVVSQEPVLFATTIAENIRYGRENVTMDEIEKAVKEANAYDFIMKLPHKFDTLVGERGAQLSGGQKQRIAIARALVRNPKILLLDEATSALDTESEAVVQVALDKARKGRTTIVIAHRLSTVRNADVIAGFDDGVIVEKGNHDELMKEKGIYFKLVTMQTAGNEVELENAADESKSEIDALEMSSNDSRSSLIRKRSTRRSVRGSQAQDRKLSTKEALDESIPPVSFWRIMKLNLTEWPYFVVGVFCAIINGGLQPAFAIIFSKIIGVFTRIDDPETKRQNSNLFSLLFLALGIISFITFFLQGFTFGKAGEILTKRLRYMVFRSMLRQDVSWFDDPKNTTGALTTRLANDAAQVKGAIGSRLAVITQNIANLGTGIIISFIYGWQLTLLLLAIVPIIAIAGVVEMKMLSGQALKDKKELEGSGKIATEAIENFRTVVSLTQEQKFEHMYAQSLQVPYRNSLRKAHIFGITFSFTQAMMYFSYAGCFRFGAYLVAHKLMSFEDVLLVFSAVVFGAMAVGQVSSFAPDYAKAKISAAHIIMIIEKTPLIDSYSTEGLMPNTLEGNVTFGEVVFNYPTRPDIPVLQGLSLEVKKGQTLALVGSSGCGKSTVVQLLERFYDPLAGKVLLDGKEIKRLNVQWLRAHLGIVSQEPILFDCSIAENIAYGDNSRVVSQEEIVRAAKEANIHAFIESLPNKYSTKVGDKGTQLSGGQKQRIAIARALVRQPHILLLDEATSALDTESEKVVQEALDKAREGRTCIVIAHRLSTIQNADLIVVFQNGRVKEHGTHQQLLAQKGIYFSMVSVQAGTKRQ

ΦF of sulfur analogue relative to selenium analogue [3]	log P (pH 7.4)	Φ(^1O2), MeOH [4]	Compound	Uptake MFI [1]	% Extrusion [1]	log P [7]	effect on ATPase activity in P-gp [2]	ΦF, MeOH [3]	dark toxicity [5]	cell death after PD [6]
–	–	–	CCN(CC)C(=S)c1ccc(-c2c3ccc(N(C)C)cc3[s+]c3c4c5c(cc23)CCCN5CCC4)s1.F[P-](F)(F)(F)(F)F [7-S—PF6]	87456 (±10089)	73.25 (±2.15) %	2.7	inhibit ATPase activity	–	–	–
–	–	–	CN(C)c1ccc2c(-c3ccc(C(=S)N4CCCCC4)s3)c3cc4c5c(c3[s+]c2c1)CCCN5CCC4.F[P-](F)(F)(F)(F)F [5-S—PF6]	80192 (±4122)	76.52 (±4.79) %	1.7	inhibit ATPase activity	0.28 ± 0.01	–	–
–	–	–	CN1CCC(C)(C)c2cc3c(-c4ccc(C(=S)N5CCCCC5)s4)c4ccc(=[N+](C)C)cc-4sc3cc21.F[P-](F)(F)(F)(F)F [1-S—PF6]	30229 (±1124)	84.16 (±3.00) %	1.2	inhibit ATPase activity	0.07 ± 0.01	–	–
roughly 30 fold	–	–	CN(C)c1ccc2c(-c3ccc(C(=S)N4CCCCC4)s3)c3cc4c5c(c3[s+]c2c1)CCCN5CCC4.[Cl-] [5-S—Cl]	76661 (±5618)	76.13 (±5.21) %	2.97 ± 0.06	–	0.30 ± 0.01	–	–
–	3.00 ± 0.02	–	CCN(CC)C(=S)c1ccc(-c2c3ccc(N(C)C)cc3[se+]c3c4c5c(cc23)CCCN5CCC4)s1.[Cl-] [7-Se—Cl, 12-(Dimethylamino)-2,3,6,7-tetrahydro-9-(5-(diethylcarbamothioyl)-thiophen-2-yl)-1H,5H-selenoxantheno[2,3,4-ij]quinolizin-14-ium chloriode]	14935 (±1810)	81.23 (±2.56) %	–	–	–	–	–
–	–	–	CN1CCC(C)(C)c2cc3c(-c4ccc(C(=O)N5CCCCC5)s4)c4ccc(=[N+](C)C)cc-4sc3cc21.F[P-](F)(F)(F)(F)F [2-S—PF6]	71978	91.79 (±1.16) %	1.2	stimulate ATPase activity	0.09 ± 0.01	–	–
–	–	–	CCN(CC)C(=S)c1ccc(-c2c3ccc(=[N+](C)C)cc-3sc3cc4c(cc23)C(C)(C)CCN4C)s1.F[P-](F)(F)(F)(F)F [3-S—PF6]	45685 (±2726)	84.91 (±1.57) %	1.7	inhibit ATPase activity	0.07 ± 0.01	–	–
–	2.41 ± 0.04	0.54±0.03	CCN(CC)C(=S)c1ccc(-c2c3ccc(=[N+](C)C)cc-3[se]c3cc4c(cc23)C(C)(C)CCN4C)s1.[Cl-] [3-Se—Cl, N-(6-(5-(diethylcarbamothioyl)thiophen-2-yl)-1,4,4-trimethyl-3,4-dihydro-1H-seleno-chromeno[3,2-g]quinolin-9(2H)-ylidene)-N-methylmethanaminium Chloride]	5480 (±666)	88.65 (±1.21) %	–	–	0.008 ± 0.002	–	–
–	–	–	CCN(CC)C(=S)c1ccc(-c2c3ccc(N(C)C)cc3[s+]c3c4c5c(cc23)CCCN5CCC4)s1.[Cl-] [7-S—Cl]	63950 (±5511)	74.88 (±3.62) %	2.55 ± 0.02	–	–	–	–
–	–	–	CN1CCC(C)(C)c2cc3c(-c4ccc(C(=S)N5CCCCC5)s4)c4ccc(=[N+](C)C)cc-4sc3cc21.[Cl-] [1-S—Cl]	30070 (±2481)	84.97 (±2.87) %	1.92 ± 0.08	–	0.07 ± 0.01	–	–
–	2.74 ± 0.02	0.23 ± 0.03	CN(C)c1ccc2c(-c3ccc(C(=O)N4CCCCC4)s3)c3cc4c5c(c3[se+]c2c1)CCCN5CCC4.[Cl-] [6-Se—Cl, 12-(Dimethylamino)-2,3,6,7-tetrahydro-9-(N-piperidyl-2-thienyl-5-carboxamido)-1H,5H-selenoxantheno[2,3,4-ij]quinolizin-14-ium hexafluorophosphate(V)]	14910	88.39 (±1.13) %	–	–	0.011 ± 0.002	–	–
–	–	–	CCN(CC)C(=O)c1ccc(-c2c3ccc(N(C)C)cc3[s+]c3c4c5c(cc23)CCCN5CCC4)s1.[Cl-] [8-S—Cl]	114750	78.55 (±2.35) %	2.65 ± 0.02	–	–	not associated with any significant dark toxicity	–
–	–	0.13±0.03 and 0.13 ± 0.02	CN(C)c1ccc2c(-c3ccc(C(=S)N4CCCCC4)s3)c3cc4c5c(c3[se+]c2c1)CCCN5CCC4.[Cl-] [5-Se—Cl]	12814 (±1256)	85.03 (±2.90) %	3.00 ± 0.02	–	0.009 ± 0.002	–	–
–	–	–	CN(C)c1ccc2c(-c3ccc(C(=O)N4CCCCC4)s3)c3cc4c5c(c3[s+]c2c1)CCCN5CCC4.F[P-](F)(F)(F)(F)F [6-S—PF6]	114190	82.54 (±1.17) %	1.9	stimulate ATPase activity	0.36 ± 0.01	–	–
–	–	–	CCN(CC)C(=O)c1ccc(-c2c3ccc(=[N+](C)C)cc-3sc3cc4c(cc23)C(C)(C)CCN4C)s1.[Cl-] [4-S—Cl]	64332	92.08 (±0.49) %	2.16 ± 0.02	–	0.09 ± 0.01	not associated with any significant dark toxicity	Significant cell death
–	–	–	CCN(CC)C(=S)c1ccc(-c2c3ccc(=[N+](C)C)cc-3sc3cc4c(cc23)C(C)(C)CCN4C)s1.[Cl-] [3-S—Cl]	38237 (±2684)	86.81 (±0.89) %	1.98 ± 0.06	–	0.07 ± 0.01	–	–
roughly 30 fold	–	–	CN(C)c1ccc2c(-c3ccc(C(=O)N4CCCCC4)s3)c3cc4c5c(c3[s+]c2c1)CCCN5CCC4.[Cl-] [6-S—Cl]	122500	82.10 (±1.17) %	2.69 ± 0.02	–	0.36 ± 0.01	–	–
–	–	–	CCN(CC)C(=O)c1ccc(-c2c3ccc(=[N+](C)C)cc-3sc3cc4c(cc23)C(C)(C)CCN4C)s1.F[P-](F)(F)(F)(F)F [4-S—PF6]	66500	92.20 (±0.55) %	1.5	stimulate ATPase activity	0.09 ± 0.01	–	–
–	–	–	CN1CCC(C)(C)c2cc3c(-c4ccc(C(=O)N5CCCCC5)s4)c4ccc(=[N+](C)C)cc-4sc3cc21.[Cl-] [2-S—Cl]	50993	92.70 (±0.74) %	2.26 ± 0.04	–	0.09 ± 0.01	–	Significant cell death

Compound	ΦF of sulfur analogue relative to selenium analogue [3]	log P (pH 7.4)	Φ(^1O2), MeOH [4]	Uptake MFI [1]	% Extrusion [1]	log P [7]	effect on ATPase activity in P-gp [2]	ΦF, MeOH [3]	dark toxicity [5]	cell death after PD [6]
CN1CCC(C)(C)c2cc3c(-c4ccc(C(=S)N5CCCCC5)s4)c4ccc(=[N+](C)C)cc-4[se]c3cc21.[Cl-] [1-Se—Cl, N-methyl-N-(1,4,4-trimethyl-6-(5-(piperidine-1-carbonothioyl)thiophen-2-yl)-3,4-dihydro-1H-selenochromeno[3,2-g]quinolin-9(2H)-ylidene)methanaminium Chloride]	–	–	0.44 ± 0.03	6162 (±633)	90.06 (±1.95) %	1.61 ± 0.06	–	0.008 ± 0.001	–	–

Source: patent US20170096636A1, “METHODS AND COMPOUNDS FOR PHOTOTHERAPY WITH CHALCOGENORHODAMINE PHOTOSENSITIZERS” (Wake Forest University Health Sciences, priority 2014, published 2017)
